Laboratory results taken from the NIST ThermoML archive (doi:10.1016/j.fluid.2013.07.028).
± gives the expanded uncertainty stated by the source.

Key:
[1] = 298.15 K; 101.33 kPa; Liquid; Vibrating tube method
[2] = refractive index (Na D-line) (dimensionless); conditions: 298.15 K; 101.33 kPa; Liquid; Standard Abbe refractometry

Row | Structure (SMILES) | mass density [1] | refractive index [2]
1 | CCOP(=O)([O-])OCC.CCn1cc[n+](C)c1 [1-ethyl-3-methylimidazolium diethyl phosphate] | 1148.4 ± 9.2 kg/m3 | 1.47304 ± 0.001
2 | c1ccncc1 [pyridine] | 978.04 ± 0.12 kg/m3 | 1.50636 ± 0.00033
3 | CC(=O)[O-].CCn1cc[n+](C)c1 [1-ethyl-3-methylimidazolium acetate] | 1099.02 ± 8.4 kg/m3 | 1.50069 ± 0.001
4 | c1ccsc1 [thiophene] | 1058.61 ± 0.15 kg/m3 | 1.52523 ± 0.00033
5 | CCCCCC [hexane] | 655.09 ± 0.33 kg/m3 | 1.37236 ± 0.00037
6 | Cc1ccccc1 [toluene] | 862.18 ± 0.16 kg/m3 | 1.49367 ± 0.00033
